Source: patent publication US9714247B2, “Multiple kinase pathway inhibitors” (Mannkind Corporation, priority 2012, dated 2017)
Like-named read-outs stand apart in the source and are kept apart here.

Assays:
[1] = molecular target: Lyn (Homo sapiens (Human), UniProt P07948); test: biochemical
[2] = molecular target: BTK (Homo sapiens (Human), UniProt Q06187)
[3] = tested on: Ramos; test: CellTiter-Glo proliferation/viability assay; assay type: cell-based, human; details: read-out: Ramos EC50
[4] = molecular target: Src (Homo sapiens (Human), UniProt P12931); test: biochemical
[5] = tested on: DoHH2; test: CellTiter-Glo proliferation/viability assay; assay type: cell-based, human; details: Homo sapiens, DOHH-2; 48 hrs; read-out: DoHH2 EC50

BTK, sequence (Q06187 whole entry): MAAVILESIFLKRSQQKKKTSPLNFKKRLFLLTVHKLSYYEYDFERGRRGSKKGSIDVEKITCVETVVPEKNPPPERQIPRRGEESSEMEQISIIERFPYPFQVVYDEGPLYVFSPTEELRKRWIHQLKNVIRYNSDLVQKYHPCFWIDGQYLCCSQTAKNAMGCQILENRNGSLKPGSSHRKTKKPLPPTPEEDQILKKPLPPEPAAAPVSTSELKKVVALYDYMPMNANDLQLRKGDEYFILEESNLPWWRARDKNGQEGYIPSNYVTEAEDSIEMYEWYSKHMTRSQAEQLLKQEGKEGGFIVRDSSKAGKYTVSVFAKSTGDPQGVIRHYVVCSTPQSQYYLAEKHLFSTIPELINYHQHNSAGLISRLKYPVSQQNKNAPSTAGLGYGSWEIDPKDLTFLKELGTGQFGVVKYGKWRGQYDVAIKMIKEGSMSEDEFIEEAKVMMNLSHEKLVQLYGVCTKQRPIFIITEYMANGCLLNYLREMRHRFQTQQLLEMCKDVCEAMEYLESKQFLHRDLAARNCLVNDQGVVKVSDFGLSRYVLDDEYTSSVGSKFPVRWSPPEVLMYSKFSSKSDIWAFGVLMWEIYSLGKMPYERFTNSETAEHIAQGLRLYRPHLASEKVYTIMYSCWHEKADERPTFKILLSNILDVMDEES
Src, sequence (P12931 whole entry, looked up): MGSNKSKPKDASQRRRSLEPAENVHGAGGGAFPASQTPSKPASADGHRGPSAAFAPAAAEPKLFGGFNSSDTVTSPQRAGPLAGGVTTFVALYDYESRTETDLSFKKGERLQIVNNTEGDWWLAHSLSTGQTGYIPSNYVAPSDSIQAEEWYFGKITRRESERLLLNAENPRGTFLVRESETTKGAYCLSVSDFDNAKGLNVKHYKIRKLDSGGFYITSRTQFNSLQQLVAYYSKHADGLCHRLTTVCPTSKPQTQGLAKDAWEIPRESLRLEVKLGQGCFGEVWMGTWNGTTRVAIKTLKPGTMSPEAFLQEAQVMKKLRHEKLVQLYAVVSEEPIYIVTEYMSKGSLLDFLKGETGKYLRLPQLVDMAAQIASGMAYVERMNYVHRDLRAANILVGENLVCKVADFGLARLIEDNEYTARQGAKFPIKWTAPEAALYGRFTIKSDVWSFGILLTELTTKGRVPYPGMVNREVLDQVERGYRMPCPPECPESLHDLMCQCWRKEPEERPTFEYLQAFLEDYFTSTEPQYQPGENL
Lyn, sequence (P07948 whole entry): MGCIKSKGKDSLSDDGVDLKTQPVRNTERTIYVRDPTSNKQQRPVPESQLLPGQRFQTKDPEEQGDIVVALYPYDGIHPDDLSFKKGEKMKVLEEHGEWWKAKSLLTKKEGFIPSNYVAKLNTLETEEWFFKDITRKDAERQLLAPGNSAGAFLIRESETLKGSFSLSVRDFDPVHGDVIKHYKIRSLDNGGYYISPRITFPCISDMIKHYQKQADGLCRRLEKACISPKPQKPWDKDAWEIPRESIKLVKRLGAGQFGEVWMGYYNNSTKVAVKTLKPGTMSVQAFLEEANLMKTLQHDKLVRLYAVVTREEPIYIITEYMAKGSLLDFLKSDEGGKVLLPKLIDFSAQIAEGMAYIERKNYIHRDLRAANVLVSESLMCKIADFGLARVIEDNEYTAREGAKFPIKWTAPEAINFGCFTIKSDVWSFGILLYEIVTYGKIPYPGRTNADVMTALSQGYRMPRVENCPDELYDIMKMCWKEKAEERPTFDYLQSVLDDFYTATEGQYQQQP

IC50 [1]	IC50 ([2]; read-out: BTK IC50)	EC50 ([3]; Homo sapiens, Ramos, 48 hrs)	IC50 [4]	IC50 [2]	EC50 ([3]; Homo sapiens, Ramos, 48 h)	IC50 ([1]; Lyn IC50)	EC50 ([3]; 48 hrs)	Compound	EC50 [5]
100 to 1000 nM	> 5000 nM	1000 to 10000 nM	100 to 1000 nM					CCn1c(=O)c(-c2ccccc2)cc2cnc(Nc3ccc(N4CCOCC4)cn3)cc21 [Compound 44, 1-Ethyl-7-(5-morpholin-4-yl-pyridin-2-ylamino)-3-phenyl-1H-[1,6]naphthyridin-2-one]	< 1000 nM
100 to 1000 nM			1000 to 5000 nM	100 to 1000 nM	> 10000 nM			CCn1c(=O)c(-c2ccccc2)cc2cnc(Nc3cc(N4CCN(CCO)CC4)nc(C)n3)cc21 [Compound 5, 1-Ethyl-7-{6-[4-(2-hydroxy-ethyl)-piperazin-1-yl]-2-methyl-pyrimidin-4-ylamino}-3-phenyl-1H-[1,6]naphthyridin-2-one]	1000 to 10000 nM
100 to 1000 nM	< 100 nM	1000 to 10000 nM	100 to 1000 nM					CCn1c(=O)c(-c2ccccc2)cc2cnc(Nc3ccc(CN4CCNCC4)cn3)cc21 [Compound 110, 1-ethyl-3-phenyl-7-((5-(piperazin-1-ylmethyl)pyridin-2-yl)amino)-1,6-naphthyridin-2(1H)-one]	< 1000 nM
1000 to 5000 nM	< 100 nM		100 to 1000 nM		> 10000 nM			CCn1c(=O)c(-c2ccccc2)cc2cnc(Nc3cn(CCOC)cn3)cc21 [Compound 114, 1-ethyl-7-((1-(2-methoxyethyl)-1H-imidazol-4-yl)amino)-3-phenyl-1,6-naphthyridin-2(1H)-one]	1000 to 10000 nM
100 to 1000 nM		> 10000 nM	100 to 1000 nM	1000 to 5000 nM				CCn1c(=O)c(-c2ccccc2)cc2cnc(Nc3ccc(N(C)C)cn3)cc21 [Compound 64, 7-(5-Dimethylamino-pyridin-2-ylamino)-1-ethyl-3-phenyl-1H-[1,6]naphthyridin-2-one]	< 1000 nM
< 100 nM			< 100 nM	< 100 nM	> 10000 nM			O=c1c(-c2c(Cl)cccc2Cl)cc2cnc(Nc3ccc(F)cn3)cc2n1C1CCOC1 (single isomer, unassigned) [Compound 147, (S or R)-3-(2,6-dichlorophenyl)-7-((5-fluoropyridin-2-yl)amino)-1-(tetrahydrofuran-3-yl)-1,6-naphthyridin-2(1H)-one]	< 1000 nM
100 to 1000 nM	< 100 nM	> 10000 nM	100 to 1000 nM					CCN(CC)CCOc1ccc(Nc2cc3[nH]c(=O)c(-c4ccccc4)cc3cn2)nc1 [Compound 14, 7-[5-(2-Diethylamino-ethoxy)-pyridin-2-ylamino]-3-phenyl-1H-[1,6]naphthyridin-2-one]	1000 to 10000 nM
100 to 1000 nM			100 to 1000 nM	1000 to 5000 nM	> 10000 nM			CCn1c(=O)c(-c2ccccc2)cc2cnc(Nc3cn(C)cn3)cc21 [Compound 113, 1-ethyl-7-((1-methyl-1H-imidazol-4-yl)amino)-3-phenyl-1,6-naphthyridin-2(1H)-one]	> 10000 nM
	> 5000 nM		100 to 1000 nM		> 10000 nM	100 to 1000 nM		CCN(CC)CCOc1ccc(Nc2cc3c(cn2)cc(-c2ccccn2)c(=O)n3CC)nc1 [Compound 102, 7-((5-(2-(diethylamino)ethoxy)pyridin-2-yl)amino)-1-ethyl-3-(pyridin-2-yl)-1,6-naphthyridin-2(1H)-one]	1000 to 10000 nM
1000 to 5000 nM		> 10000 nM	100 to 1000 nM	100 to 1000 nM				CCN(CC)CCOc1ccc(Nc2cc3c(cn2)cc(-c2ccccc2)c(=O)n3-c2cccnc2)nc1 [Compound 84, 7-[5-(2-Diethylamino-ethoxy)-pyridin-2-ylamino]-3-phenyl-1-pyridin-3-yl-1H-[1,6]naphthyridin-2-one]	1000 to 10000 nM
1000 to 5000 nM		1000 to 10000 nM	100 to 1000 nM	1000 to 5000 nM				CCn1c(=O)c(-c2ccccc2)cc2cnc(Nc3ccc(OC)nn3)cc21 [Compound 61, 1-Ethyl-7-(6-methoxy-pyridazin-3-ylamino)-3-phenyl-1H-[1,6]naphthyridin-2-one]	< 1000 nM
100 to 1000 nM		> 10000 nM	1000 to 5000 nM	1000 to 5000 nM				CCn1c(=O)c(-c2ccccc2)cc2cnc(Nc3cnccn3)cc21 [Compound 6, 1-Ethyl-3-phenyl-7-(pyrazin-2-ylamino)-1H-[1,6]naphthyridin-2-one]	> 10000 nM
			< 100 nM	< 100 nM		< 100 nM	> 10000 nM	CCN(CC)CCOc1ccc(Nc2cc3c(cn2)cc(-c2c(F)cccc2F)c(=O)n3C2CCOC2)nc1 (single isomer, unassigned) [Compound 143, (S or R)-7-((5-(2-(diethylamino)ethoxy)pyridin-2-yl)amino)-3-(2,6-difluorophenyl)-1-(tetrahydrofuran-3-yl)-1,6-naphthyridin-2(1H)-one]	< 1000 nM
			100 to 1000 nM	1000 to 5000 nM	> 10000 nM	100 to 1000 nM		CCN(CC)CCOc1ccc(Nc2cc3c(cn2)cc(-c2ccccc2)c(=O)n3C2CCN(C)C2)nc1 (stereo not drawn) [Compound 58, 7-((5-(2-(diethylamino)ethoxy)pyridin-2-yl)amino)-1-(1-methylpyrrolidin-3-yl)-3-phenyl-1,6-naphthyridin-2(1H)-one]	1000 to 10000 nM
	> 5000 nM		100 to 1000 nM		> 10000 nM	1000 to 5000 nM		CCN(CC)CCOc1ccc(Nc2cc3c(cn2)cc(-c2ccccc2)c(=O)n3CC2CCN(C)C2)nc1 (stereo not drawn) [Compound 65, 7-((5-(2-(diethylamino)ethoxy)pyridin-2-yl)amino)-1-((1-methylpyrrolidin-3-yl)methyl)-3-phenyl-1,6-naphthyridin-2(1H)-one]	< 1000 nM
100 to 1000 nM	< 100 nM	> 10000 nM	100 to 1000 nM					NCCn1c(=O)c(-c2c(F)cccc2F)cc2cnc(Nc3ccc(F)cn3)cc21 [Compound 127, 1-(2-aminoethyl)-3-(2,6-difluorophenyl)-7-((5-fluoropyridin-2-yl)amino)-1,6-naphthyridin-2(1H)-one]	1000 to 10000 nM
1000 to 5000 nM			100 to 1000 nM	100 to 1000 nM	> 10000 nM			CCn1c(=O)c(-c2ccccc2)cc2cnc(Nc3ccccn3)cc21 [Compound 7, 1-Ethyl-3-phenyl-7-(pyridin-2-ylamino)-1H-[1,6]naphthyridin-2-one]	1000 to 10000 nM
100 to 1000 nM	< 100 nM	1000 to 10000 nM	100 to 1000 nM					CCn1c(=O)c(-c2ccccc2)cc2cnc(Nc3ccc(CN4CCN(S(C)(=O)=O)CC4)cn3)cc21 [Compound 111, 1-ethyl-7-((5-((4-(methylsulfonyl)piperazin-1-yl)methyl)pyridin-2-yl)amino)-3-phenyl-1,6-naphthyridin-2(1H)-one]	< 1000 nM
100 to 1000 nM	> 5000 nM		100 to 1000 nM		1000 to 10000 nM			CCN(CC)CCOc1ccc(Nc2cc3c(cn2)cc(-c2ccc(SC)cc2)c(=O)n3CC)nc1 [Compound 104, 7-((5-(2-(diethylamino)ethoxy)pyridin-2-yl)amino)-1-ethyl-3-(4-(methylthio)phenyl)-1,6-naphthyridin-2(1H)-one]	1000 to 10000 nM
1000 to 5000 nM			100 to 1000 nM	100 to 1000 nM	> 10000 nM			CCn1c(=O)c(-c2ccccc2)cc2cnc(Nc3ccncn3)cc21 [Compound 60, 1-Ethyl-3-phenyl-7-(pyrimidin-4-ylamino)-1H-[1,6]naphthyridin-2-one]	1000 to 10000 nM
100 to 1000 nM		> 10000 nM	100 to 1000 nM	1000 to 5000 nM				CCn1c(=O)c(C#CC(C)(C)O)cc2cnc(Nc3ccc(C)cn3)cc21 [Compound 54]	1000 to 10000 nM
1000 to 5000 nM		> 10000 nM	1000 to 5000 nM	1000 to 5000 nM				COCCn1c(=O)c(C(C)C)cc2cnc(Nc3ccc(F)cn3)cc21 [Compound 128, 7-((5-fluoropyridin-2-yl)amino)-3-isopropyl-1-(2-methoxyethyl)-1,6-naphthyridin-2(1H)-one]	1000 to 10000 nM
100 to 1000 nM		> 10000 nM	100 to 1000 nM	1000 to 5000 nM				CCn1c(=O)c(-c2ccccc2)cc2cnc(Nc3ccc(OC)cn3)cc21 [Compound 51, 1-Ethyl-7-(5-methoxy-pyridin-2-ylamino)-3-phenyl-1H-[1,6]naphthayridin-2-one]	1000 to 10000 nM
1000 to 5000 nM	> 5000 nM	1000 to 10000 nM	100 to 1000 nM					CCn1c(=O)c(C#CCO)cc2cnc(Nc3ccc(C)cn3)cc21 [Compound 53]	1000 to 10000 nM
			100 to 1000 nM	1000 to 5000 nM	1000 to 10000 nM	1000 to 5000 nM		CCn1c(=O)c(-c2ccccc2)cc2cnc(Nc3ccnc(OC)n3)cc21 [Compound 62, 1-Ethyl-7-(2-methoxy-pyrimidin-4-ylamino)-3-phenyl-1H-[1,6]naphthyridin-2-one]	< 1000 nM

Compound	IC50 [1]	IC50 ([2]; read-out: BTK IC50)	EC50 ([3]; Homo sapiens, Ramos, 48 hrs)	IC50 [4]	IC50 [2]	EC50 ([3]; Homo sapiens, Ramos, 48 h)	IC50 ([1]; Lyn IC50)	EC50 ([3]; 48 hrs)	EC50 [5]
CCn1c(=O)c(C2CC2)cc2cnc(Nc3ccc(C)cn3)cc21 [Compound 30, 3-Cyclopropyl-1-ethyl-7-(5-methyl-pyridin-2-ylamino)-1H-[1,6]naphthaayridin-2-one]	1000 to 5000 nM	> 5000 nM		100 to 1000 nM		1000 to 10000 nM			1000 to 10000 nM
CCn1c(=O)c(-c2cc([S+](C)[O-])ccc2F)cc2cnc(Nc3ccc(N(C)C4CCN(C)CC4)cn3)cc21 (stereo not drawn) [Compound 117, 1-ethyl-3-(2-fluoro-5-(methylsulfinyl)phenyl)-7-((5-(methyl(1-methylpiperidin-4-yl)amino)pyridin-2-yl)amino)-1,6-naphthyridin-2(1H)-one]	< 100 nM			100 to 1000 nM	100 to 1000 nM	> 10000 nM			1000 to 10000 nM
